# From ChEMBL document CHEMBL1201862, “PubChem BioAssay data set” (2004)
#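 Exposure lasted 48 hours, with cells grown in 96-well plates and compounds tested at five concentrations. GI50: concentration for 50% inhibition of growth.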 Activity calls are given as the source filed them. Cut-off read from the data, not from the text of the source: active = GI50 up to about 1.1 µM and inactive = higher.
# Legend:
# Experiment in all cases: NCI tumour cell line growth inhibition, 48 h
# [1] = test system: A498
# [2] = test system: UACC-257
# [3] = test system: SNB-78
# [4] = test system: RPMI-8226
# [5] = test system: NCI-H460
# [6] = test system: 786-0
# [7] = test system: SR
# [8] = test system: OVCAR-4
# [9] = test system: LOX IMVI
# [10] = test system: M14
# [11] = test system: HOP-92
# [12] = test system: SF-295
# [13] = test system: Malme-3M
# [14] = test system: OVCAR-5
# [15] = test system: HCC 2998
# [16] = test system: HT-29
# [17] = test system: XF498
# [18] = test system: NCI-H522
# [19] = test system: KM-20L2
# [20] = test system: SK-MEL-5
# [21] = test system: SNB-75
# [22] = test system: SK-MEL-28
# [23] = test system: TK-10
# [24] = test system: HL-60
# [25] = test system: A549
# [26] = test system: HOP-62
# [27] = test system: RXF 631
# [28] = test system: SN12C
# [29] = test system: LXFL 529
# [30] = test system: NCI-H226
# [31] = test system: SW-620
# [32] = test system: DMS-114
# [33] = test system: HCT-116
# [34] = test system: SNB-19
# [35] = test system: DMS-273
# [36] = test system: NCI-H23
# [37] = test system: HOP-18
# [38] = test system: RXF 393
# [39] = test system: SF-268
# [40] = test system: MOLT-4
# [41] = test system: CCRF-CEM
# [42] = test system: COLO 205
# [43] = test system: CAKI-1
# [44] = test system: KM12
# [45] = test system: DLD-1
# [46] = test system: HCT-15
# [47] = test system: ACHN
# [48] = test system: SK-MEL-2
# [49] = test system: U-251
# [50] = test system: SK-OV-3
compound,measurement,setting,value
O=[N+]([O-])c1nccn1COCCO,GI50,[1],> 100 µM (inactive)
same,GI50,[2],> 100 µM (inactive)
same,GI50,[3],> 100 µM (inactive)
same,GI50,[4],> 100 µM (inactive)
same,GI50,[5],> 100 µM (inactive)
same,GI50,[6],> 100 µM (inactive)
same,GI50,[7],> 100 µM (inactive)
same,GI50,[8],> 100 µM (inactive)
same,GI50,[9],> 100 µM (inactive)
same,GI50,[10],> 100 µM (inactive)
same,GI50,[11],> 100 µM (inactive)
same,GI50,[12],> 100 µM (inactive)
same,GI50,[13],> 100 µM (inactive)
same,GI50,[14],> 100 µM (inactive)
same,GI50,[15],> 100 µM (inactive)
same,GI50,[16],> 100 µM (inactive)
same,GI50,[17],> 100 µM (inactive)
same,GI50,[18],> 100 µM (inactive)
same,GI50,[19],> 100 µM (inactive)
same,GI50,[20],> 100 µM (inactive)
same,GI50,[21],> 100 µM (inactive)
same,GI50,[22],> 100 µM (inactive)
same,GI50,[23],> 100 µM (inactive)
same,GI50,[24],> 100 µM (inactive)
same,GI50,[25],> 100 µM (inactive)
same,GI50,[26],> 100 µM (inactive)
same,GI50,[27],> 100 µM (inactive)
same,GI50,[28],> 100 µM (inactive)
same,GI50,[29],> 100 µM (inactive)
same,GI50,[30],> 100 µM (inactive)
same,GI50,[31],> 100 µM (inactive)
same,GI50,[32],> 100 µM (inactive)
same,GI50,[33],> 100 µM (inactive)
same,GI50,[34],> 100 µM (inactive)
same,GI50,[35],> 100 µM (inactive)
same,GI50,[36],> 100 µM (inactive)
same,GI50,[37],28.1 µM (inactive)
same,GI50,[38],> 100 µM (inactive)
same,GI50,[39],> 100 µM (inactive)
same,GI50,[40],0.442 µM (active)
same,GI50,[41],> 100 µM (inactive)
same,GI50,[42],> 100 µM (inactive)
same,GI50,[43],> 100 µM (inactive)
same,GI50,[44],> 100 µM (inactive)
same,GI50,[45],> 100 µM (inactive)
same,GI50,[46],> 100 µM
same,GI50,[47],> 100 µM (inactive)
same,GI50,[48],> 100 µM (inactive)
same,GI50,[49],> 100 µM (inactive)
same,GI50,[50],> 100 µM (inactive)
